Data published in US10844077B2, “Thiazolyl-containing compounds for treating proliferative diseases” (Dana-Farber Cancer Institute, Inc., priority 2014, dated 2020).
“And” between values parts separate entries of the source, which are not always exact repeats. Equal entries are not always repeated.

Tests used:
Assay in all cases: KINATIV assay
Format in all cases: cell-based
Settings in all cases: 1 μM, 90 minutes, BCWM.1 cells
CDK6 = CDK6 (Homo sapiens (Human), UniProt Q00534)
Method in brief: (§1)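 Quantitation by ACTIVX of probe-bound kinases from cell lysates labeled directly with ATP-biotin; compounds run in duplicate, controls in duplicate or quadruplicate.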

CDK9 = CDK9 (Homo sapiens (Human), UniProt P50750)
Method in brief: as §1

CLK3 = CLK3 (Homo sapiens (Human), UniProt P49761)
Method in brief: as §1

CaMK1d = CaMK1d (Homo sapiens (Human), UniProt Q8IU85)
Method in brief: as §1

CaMK4 = CaMK4 (Homo sapiens (Human), UniProt Q16566)
Method in brief: as §1

EphB1 = EphB1 (Homo sapiens (Human), UniProt P54762)
Method in brief: as §1

Erk1 = Erk1 (Homo sapiens (Human), UniProt P27361)
Method in brief: as §1

Erk5 = Erk5 (Homo sapiens (Human), UniProt Q13164)
Method in brief: as §1

FRAP = FRAP (Homo sapiens (Human), UniProt P42345)
Method in brief: as §1

FYN, SRC, YES = tested on: FYN, SRC, YES
Method in brief: as §1

GSK3A = GSK3A (Homo sapiens (Human), UniProt P49840)
Method in brief: as §1

IKKe, TBK1 = tested on: IKKe, TBK1
Method in brief: as §1

ILK = ILK (Homo sapiens (Human), UniProt Q13418)
Method in brief: as §1

LYN = LYN (Homo sapiens (Human), UniProt P07948)
Method in brief: as §1

MAP2K1 = MAP2K1 (Homo sapiens (Human), UniProt Q02750)
Method in brief: as §1

MAP2K6 = MAP2K6 (Homo sapiens (Human), UniProt P52564)
Method in brief: as §1

MAP2K7 = MAP2K7 (Homo sapiens (Human), UniProt O14733)
Method in brief: as §1

MAP3K1 = MAP3K1 (Homo sapiens (Human), UniProt Q13233)
Method in brief: as §1

MAP3K2 = MAP3K2 (Homo sapiens (Human), UniProt Q9Y2U5)
Method in brief: as §1

MAP3K4 = MAP3K4 (Homo sapiens (Human), UniProt Q9Y6R4)
Method in brief: as §1

MAP3K5 = MAP3K5 (Homo sapiens (Human), UniProt Q99683)
Method in brief: as §1

MAP3K6 = MAP3K6 (Homo sapiens (Human), UniProt O95382)
Method in brief: as §1

MARK2, MARK3 = tested on: MARK2, MARK3
Method in brief: as §1

MARK3, MARK4 = tested on: MARK3, MARK4
Method in brief: as §1

MSK1 domain1 = MSK1 domain1 (Homo sapiens (Human), UniProt O75582)
Method in brief: as §1

MSK1, MSK2 domain1 = tested on: MSK1, MSK2 domain1
Method in brief: as §1

MST4 = MST4 (Homo sapiens (Human), UniProt Q9P289)
Method in brief: as §1

NEK8 = NEK8 (Homo sapiens (Human), UniProt Q86SG6)
Method in brief: as §1

OSR1 = OSR1 (Homo sapiens (Human), UniProt O95747)
Method in brief: as §1

PIP5K3 = PIP5K3 (Homo sapiens (Human), UniProt Q9Y2I7)
Method in brief: as §1

PKD1, PKD2 = tested on: PKD1, PKD2
Method in brief: as §1

PKD2 = PKD2 (Homo sapiens (Human), UniProt Q9BZL6)
Method in brief: as §1

PKN1 = PKN1 (Homo sapiens (Human), UniProt Q16512)
Method in brief: as §1

RSK2 domain2 = RSK2 domain2 (Homo sapiens (Human), UniProt P51812)
Method in brief: as §1

RSK3 = RSK3 (Homo sapiens (Human), UniProt Q15349)
Method in brief: as §1

SRC = SRC (Homo sapiens (Human), UniProt P12931)
Method in brief: as §1

TAK1 = TAK1 (Homo sapiens (Human), UniProt O43318)
Method in brief: as §1

TEC = TEC (Homo sapiens (Human), UniProt P42680)
Method in brief: as §1

TYK2 domain2 = TYK2 domain2 (Homo sapiens (Human), UniProt P29597)
Method in brief: as §1

YSK1 = YSK1 (Homo sapiens (Human), UniProt O00506)
Method in brief: as §1

eEF2K = eEF2K (Homo sapiens (Human), UniProt O00418)
Method in brief: as §1

Chain of LYN (P07948 whole entry): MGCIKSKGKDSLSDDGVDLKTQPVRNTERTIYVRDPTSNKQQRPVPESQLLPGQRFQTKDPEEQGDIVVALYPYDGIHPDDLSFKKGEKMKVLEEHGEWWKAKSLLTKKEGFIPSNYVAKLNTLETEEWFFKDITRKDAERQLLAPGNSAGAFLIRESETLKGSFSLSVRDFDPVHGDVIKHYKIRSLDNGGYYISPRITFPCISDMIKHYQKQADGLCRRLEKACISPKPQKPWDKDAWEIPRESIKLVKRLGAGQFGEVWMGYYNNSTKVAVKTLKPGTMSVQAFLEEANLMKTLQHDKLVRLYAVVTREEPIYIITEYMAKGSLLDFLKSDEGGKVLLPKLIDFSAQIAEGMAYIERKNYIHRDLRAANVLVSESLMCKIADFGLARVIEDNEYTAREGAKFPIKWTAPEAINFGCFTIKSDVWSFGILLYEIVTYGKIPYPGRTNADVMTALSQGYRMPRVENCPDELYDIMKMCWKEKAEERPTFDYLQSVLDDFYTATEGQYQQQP
Chain of CaMK1d (Q8IU85 whole entry): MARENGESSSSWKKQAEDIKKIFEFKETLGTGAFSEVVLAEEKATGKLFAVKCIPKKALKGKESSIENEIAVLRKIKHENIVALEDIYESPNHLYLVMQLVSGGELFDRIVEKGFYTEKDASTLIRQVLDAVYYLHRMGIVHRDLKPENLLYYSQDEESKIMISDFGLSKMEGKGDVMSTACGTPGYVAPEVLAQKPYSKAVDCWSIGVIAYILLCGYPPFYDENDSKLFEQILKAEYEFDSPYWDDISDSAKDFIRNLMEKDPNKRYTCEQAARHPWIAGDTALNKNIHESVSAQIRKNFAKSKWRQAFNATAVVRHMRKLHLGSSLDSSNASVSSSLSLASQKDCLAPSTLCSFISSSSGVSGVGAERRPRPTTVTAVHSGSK
Chain of TEC (P42680 whole entry): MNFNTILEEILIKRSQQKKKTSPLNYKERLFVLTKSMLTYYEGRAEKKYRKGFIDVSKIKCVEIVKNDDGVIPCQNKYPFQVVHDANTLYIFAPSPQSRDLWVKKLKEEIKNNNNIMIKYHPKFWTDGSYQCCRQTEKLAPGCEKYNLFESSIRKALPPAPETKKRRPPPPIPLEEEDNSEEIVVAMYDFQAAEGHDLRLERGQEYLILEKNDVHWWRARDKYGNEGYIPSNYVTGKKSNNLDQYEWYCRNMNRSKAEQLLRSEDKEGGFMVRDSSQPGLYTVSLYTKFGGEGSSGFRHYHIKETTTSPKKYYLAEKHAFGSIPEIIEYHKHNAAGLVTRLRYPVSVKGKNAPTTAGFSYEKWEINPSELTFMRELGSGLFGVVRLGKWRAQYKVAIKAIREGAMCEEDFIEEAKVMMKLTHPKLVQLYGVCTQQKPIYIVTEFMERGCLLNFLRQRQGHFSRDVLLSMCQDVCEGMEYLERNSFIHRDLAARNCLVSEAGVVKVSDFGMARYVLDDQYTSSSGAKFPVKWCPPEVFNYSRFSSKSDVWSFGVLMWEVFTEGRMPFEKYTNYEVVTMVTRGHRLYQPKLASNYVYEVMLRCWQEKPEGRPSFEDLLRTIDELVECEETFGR
Chain of MAP2K6 (P52564 whole entry): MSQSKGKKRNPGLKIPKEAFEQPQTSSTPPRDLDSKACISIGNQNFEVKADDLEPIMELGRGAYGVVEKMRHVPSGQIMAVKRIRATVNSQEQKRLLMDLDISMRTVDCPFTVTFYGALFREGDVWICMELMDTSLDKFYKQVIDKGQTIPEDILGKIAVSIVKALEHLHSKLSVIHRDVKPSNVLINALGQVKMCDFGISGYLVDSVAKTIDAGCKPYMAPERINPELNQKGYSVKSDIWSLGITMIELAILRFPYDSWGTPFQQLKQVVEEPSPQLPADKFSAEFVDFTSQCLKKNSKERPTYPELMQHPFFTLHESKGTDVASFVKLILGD
Chain of ILK (Q13418 whole entry): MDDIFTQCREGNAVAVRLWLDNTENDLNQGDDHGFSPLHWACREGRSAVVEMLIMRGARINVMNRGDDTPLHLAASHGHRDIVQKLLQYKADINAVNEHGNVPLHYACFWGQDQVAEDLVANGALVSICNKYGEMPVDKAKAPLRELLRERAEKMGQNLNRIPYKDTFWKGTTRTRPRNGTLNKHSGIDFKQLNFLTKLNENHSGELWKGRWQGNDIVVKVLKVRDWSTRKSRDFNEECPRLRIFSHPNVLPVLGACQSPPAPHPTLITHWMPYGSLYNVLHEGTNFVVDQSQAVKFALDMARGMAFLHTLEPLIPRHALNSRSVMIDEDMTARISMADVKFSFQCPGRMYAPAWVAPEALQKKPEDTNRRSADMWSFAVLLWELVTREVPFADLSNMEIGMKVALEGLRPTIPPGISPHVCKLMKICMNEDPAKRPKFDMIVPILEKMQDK
Chain of CDK9 (P50750 whole entry): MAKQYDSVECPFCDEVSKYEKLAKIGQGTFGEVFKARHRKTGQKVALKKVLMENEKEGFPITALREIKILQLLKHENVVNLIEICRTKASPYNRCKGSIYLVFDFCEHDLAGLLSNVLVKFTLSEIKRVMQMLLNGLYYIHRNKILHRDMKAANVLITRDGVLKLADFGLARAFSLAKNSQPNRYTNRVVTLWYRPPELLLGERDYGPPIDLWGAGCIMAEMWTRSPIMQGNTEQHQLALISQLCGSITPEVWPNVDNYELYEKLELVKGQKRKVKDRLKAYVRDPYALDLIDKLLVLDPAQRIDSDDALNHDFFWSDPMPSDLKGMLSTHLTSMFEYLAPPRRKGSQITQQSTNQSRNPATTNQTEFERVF
Chain of CDK9 (O60563 whole entry partner): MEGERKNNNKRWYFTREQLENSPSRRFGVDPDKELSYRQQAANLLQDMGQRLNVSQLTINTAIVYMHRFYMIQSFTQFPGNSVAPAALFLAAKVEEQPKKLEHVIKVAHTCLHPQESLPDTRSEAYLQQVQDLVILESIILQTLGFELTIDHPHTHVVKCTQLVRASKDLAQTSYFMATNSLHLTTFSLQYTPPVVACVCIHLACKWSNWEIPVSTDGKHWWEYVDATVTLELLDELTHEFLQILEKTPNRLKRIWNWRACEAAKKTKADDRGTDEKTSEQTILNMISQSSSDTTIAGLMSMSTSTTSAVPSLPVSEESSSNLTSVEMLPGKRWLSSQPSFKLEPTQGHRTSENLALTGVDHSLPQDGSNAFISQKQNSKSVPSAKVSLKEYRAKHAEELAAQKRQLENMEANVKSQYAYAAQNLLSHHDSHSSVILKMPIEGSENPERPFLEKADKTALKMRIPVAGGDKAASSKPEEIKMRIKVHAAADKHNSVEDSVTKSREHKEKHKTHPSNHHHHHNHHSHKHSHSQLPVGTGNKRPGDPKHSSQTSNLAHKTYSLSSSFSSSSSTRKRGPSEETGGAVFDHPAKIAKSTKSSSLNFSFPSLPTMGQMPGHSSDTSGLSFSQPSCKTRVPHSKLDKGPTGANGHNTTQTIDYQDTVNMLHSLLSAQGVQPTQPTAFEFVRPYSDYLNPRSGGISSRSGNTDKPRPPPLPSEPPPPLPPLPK
Chain of YSK1 (O00506 whole entry): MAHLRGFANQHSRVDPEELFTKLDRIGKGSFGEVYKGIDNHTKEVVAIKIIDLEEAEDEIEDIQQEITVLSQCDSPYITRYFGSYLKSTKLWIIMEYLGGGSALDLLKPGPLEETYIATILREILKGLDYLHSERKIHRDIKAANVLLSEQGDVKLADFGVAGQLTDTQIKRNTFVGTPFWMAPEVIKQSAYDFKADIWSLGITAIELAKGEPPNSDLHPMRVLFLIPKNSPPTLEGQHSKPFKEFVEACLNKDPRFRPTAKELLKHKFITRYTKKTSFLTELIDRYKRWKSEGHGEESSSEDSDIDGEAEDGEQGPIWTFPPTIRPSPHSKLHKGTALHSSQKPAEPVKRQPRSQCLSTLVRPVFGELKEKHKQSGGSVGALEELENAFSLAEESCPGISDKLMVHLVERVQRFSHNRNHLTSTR
Chain of RSK2 domain2 (P51812 whole entry, the tested form may be a part): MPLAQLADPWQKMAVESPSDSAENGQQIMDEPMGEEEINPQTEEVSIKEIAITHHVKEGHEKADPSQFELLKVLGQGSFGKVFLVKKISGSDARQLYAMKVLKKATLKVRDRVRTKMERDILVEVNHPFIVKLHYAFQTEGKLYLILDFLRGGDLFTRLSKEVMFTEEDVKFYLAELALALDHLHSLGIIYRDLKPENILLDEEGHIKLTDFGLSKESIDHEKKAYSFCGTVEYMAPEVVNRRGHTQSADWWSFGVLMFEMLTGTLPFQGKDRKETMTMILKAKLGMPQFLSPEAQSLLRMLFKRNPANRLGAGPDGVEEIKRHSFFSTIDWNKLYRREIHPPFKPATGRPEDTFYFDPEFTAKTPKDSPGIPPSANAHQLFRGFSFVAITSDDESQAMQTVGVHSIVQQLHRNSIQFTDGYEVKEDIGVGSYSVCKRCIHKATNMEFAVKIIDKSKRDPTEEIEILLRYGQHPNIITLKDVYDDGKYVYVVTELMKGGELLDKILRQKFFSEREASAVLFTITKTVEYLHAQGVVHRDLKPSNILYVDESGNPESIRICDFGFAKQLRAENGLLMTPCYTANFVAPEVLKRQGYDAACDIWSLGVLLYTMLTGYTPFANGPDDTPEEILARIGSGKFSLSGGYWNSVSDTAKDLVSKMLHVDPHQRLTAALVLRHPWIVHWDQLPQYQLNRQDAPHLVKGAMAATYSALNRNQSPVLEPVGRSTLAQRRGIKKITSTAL
Chain of CDK6 (Q00534 whole entry): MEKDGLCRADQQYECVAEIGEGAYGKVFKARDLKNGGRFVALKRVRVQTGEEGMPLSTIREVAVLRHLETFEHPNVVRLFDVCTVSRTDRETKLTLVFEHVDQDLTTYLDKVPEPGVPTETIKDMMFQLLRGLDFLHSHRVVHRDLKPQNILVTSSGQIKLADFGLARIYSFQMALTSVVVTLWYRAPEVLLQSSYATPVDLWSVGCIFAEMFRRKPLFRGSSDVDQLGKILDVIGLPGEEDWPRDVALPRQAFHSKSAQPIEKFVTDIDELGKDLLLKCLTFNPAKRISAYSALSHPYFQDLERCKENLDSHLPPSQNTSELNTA

With `C=CC(=O)N1CC[C@@H](Nc2nccc(Nc3ncc(C(=O)Nc4c(C)cccc4C)s3)n2)C1` [Example I-4] the “% change of MS signal compared to control sample” value (shortened to “% change of MS signal”) (CDK6) was 7.8%, the “% change of MS signal” value (CDK9) was −41.9% and the “% change of MS signal” value (CLK3) was −1.3%. The “% change of MS signal” value (CaMK1d) was −12.5% and −4.0%, the “% change of MS signal” value (CaMK4) was −7.1% and the “% change of MS signal” value (EphB1) was >97%. For the same molecule, the “% change of MS signal” value (Erk1) was −10.9%, the “% change of MS signal” value (Erk5) was −9.0% and the “% change of MS signal” value (FRAP) was 4.9%. For the same molecule, the “% change of MS signal” value (FYN, SRC, YES) was 97.4%, the “% change of MS signal” value (GSK3A) was −10.5% and the “% change of MS signal” value (IKKe, TBK1) was −38.7%. For the same molecule, the “% change of MS signal” value (ILK) was −19.1%, the “% change of MS signal” value (LYN) was >97% and >90% and the “% change of MS signal” value (MAP2K1) was −31.6%. For the same molecule, the “% change of MS signal” value (MAP2K6) was −18.0% and −10.7%, the “% change of MS signal” value (MAP2K7) was −10.1% and the “% change of MS signal” value (MAP3K1) was 18.4%. The “% change of MS signal” value (MAP3K2) was 12.1%, the “% change of MS signal” value (MAP3K4) was −20.5% and the “% change of MS signal” value (MAP3K5) was −10.7%. The “% change of MS signal” value (MAP3K6) was 10.9%, the “% change of MS signal” value (MARK2, MARK3) was −31.5% and the “% change of MS signal” value (MARK3, MARK4) was 19.1%. For the same molecule, the “% change of MS signal” value (MSK1 domain1) was −15.8%, the “% change of MS signal” value (MSK1, MSK2 domain1) was −28.9% and the “% change of MS signal” value (MST4) was −13.2%. The “% change of MS signal” value (NEK8) was 14.6%, the “% change of MS signal” value (OSR1) was 26.7% and the “% change of MS signal” value (PIP5K3) was 14.5%. The “% change of MS signal” value (PKD1, PKD2) was −4.7%, the “% change of MS signal” value (PKD2) was 12.9% and the “% change of MS signal” value (PKN1) was 17.4%. For the same molecule, the “% change of MS signal” value (RSK2 domain2) was 13.8%, the “% change of MS signal” value (RSK3) was 16.8% and the “% change of MS signal” value (SRC) was >90%. For the same molecule, the “% change of MS signal” value (TAK1) was 27.8%, the “% change of MS signal” value (TEC) was 68.7% and 73.7% and the “% change of MS signal” value (TYK2 domain2) was −3.8%. For the same molecule, the “% change of MS signal” value (YSK1) was −58.5% and the “% change of MS signal” value (eEF2K) was 0.3%.
In the case of `C=CC(=O)N1CCCCC(Nc2nccc(Nc3ncc(C(=O)Nc4c(C)cccc4C)s3)n2)C1` (stereo not shown) [Example I-7], the “% change of MS signal” value (CDK6) is reported as 4.1%, the “% change of MS signal” value (CDK9) is reported as −37.0% and the “% change of MS signal” value (CLK3) is reported as −15.7%. The “% change of MS signal” value (CaMK1d) was −19.1% and −16.0%, the “% change of MS signal” value (CaMK4) was −24.9% and the “% change of MS signal” value (EphB1) was >97%. For the same molecule, the “% change of MS signal” value (Erk1) was −23.1%, the “% change of MS signal” value (Erk5) was −13.8% and the “% change of MS signal” value (FRAP) was −3.5%. The “% change of MS signal” value (FYN, SRC, YES) was 98.4%, the “% change of MS signal” value (GSK3A) was −11.3% and the “% change of MS signal” value (IKKe, TBK1) was −10.7%. For the same molecule, the “% change of MS signal” value (ILK) was 17.1% and 28.2%, the “% change of MS signal” value (LYN) was >97% and >90% and the “% change of MS signal” value (MAP2K1) was −3.7%. The “% change of MS signal” value (MAP2K6) was 5.9% and 2.5%, the “% change of MS signal” value (MAP2K7) was 11.2% and the “% change of MS signal” value (MAP3K1) was 7.9%. For the same molecule, the “% change of MS signal” value (MAP3K2) was 4.9%, the “% change of MS signal” value (MAP3K4) was −24.2% and the “% change of MS signal” value (MAP3K5) was −9.3%. The “% change of MS signal” value (MAP3K6) was −21.3%, the “% change of MS signal” value (MARK2, MARK3) was −11.0% and the “% change of MS signal” value (MARK3, MARK4) was 20.7%. The “% change of MS signal” value (MSK1 domain1) was −40.5%, the “% change of MS signal” value (MSK1, MSK2 domain1) was −40.4% and the “% change of MS signal” value (MST4) was 11.6%. For the same molecule, the “% change of MS signal” value (NEK8) was 12.2%, the “% change of MS signal” value (OSR1) was 22.0% and the “% change of MS signal” value (PIP5K3) was 4.3%. For the same molecule, the “% change of MS signal” value (PKD1, PKD2) was −8.3%, the “% change of MS signal” value (PKD2) was 10.0% and the “% change of MS signal” value (PKN1) was 4.2%. The “% change of MS signal” value (RSK2 domain2) was −0.3%, the “% change of MS signal” value (RSK3) was 12.6% and the “% change of MS signal” value (SRC) was >90%. For the same molecule, the “% change of MS signal” value (TAK1) was 14.5%, the “% change of MS signal” value (TEC) was 85.1% and 58.6% and the “% change of MS signal” value (TYK2 domain2) was −46.4%. The “% change of MS signal” value (YSK1) was −19.9% and the “% change of MS signal” value (eEF2K) was 4.9%.
